{"source": "patent US5492822A", "about": "“Method for recovering purified 100,000 dalton molecular weight fraction of human pancreatic cholesterol esterase” (Lange, III; Louis G., priority 1995, dated 1996)", "key": {"[1]": {"molecular_target": "T1, human pancreatic cholesterol esterase (Homo sapiens, UniProt P19835)", "T1 construct": "30 gm of human pancreas received at autopsy were placed in 10 mM phosphate; from tissue; host or cells: human pancreas (autopsy)", "T1 sequence (P19835 21-753)": "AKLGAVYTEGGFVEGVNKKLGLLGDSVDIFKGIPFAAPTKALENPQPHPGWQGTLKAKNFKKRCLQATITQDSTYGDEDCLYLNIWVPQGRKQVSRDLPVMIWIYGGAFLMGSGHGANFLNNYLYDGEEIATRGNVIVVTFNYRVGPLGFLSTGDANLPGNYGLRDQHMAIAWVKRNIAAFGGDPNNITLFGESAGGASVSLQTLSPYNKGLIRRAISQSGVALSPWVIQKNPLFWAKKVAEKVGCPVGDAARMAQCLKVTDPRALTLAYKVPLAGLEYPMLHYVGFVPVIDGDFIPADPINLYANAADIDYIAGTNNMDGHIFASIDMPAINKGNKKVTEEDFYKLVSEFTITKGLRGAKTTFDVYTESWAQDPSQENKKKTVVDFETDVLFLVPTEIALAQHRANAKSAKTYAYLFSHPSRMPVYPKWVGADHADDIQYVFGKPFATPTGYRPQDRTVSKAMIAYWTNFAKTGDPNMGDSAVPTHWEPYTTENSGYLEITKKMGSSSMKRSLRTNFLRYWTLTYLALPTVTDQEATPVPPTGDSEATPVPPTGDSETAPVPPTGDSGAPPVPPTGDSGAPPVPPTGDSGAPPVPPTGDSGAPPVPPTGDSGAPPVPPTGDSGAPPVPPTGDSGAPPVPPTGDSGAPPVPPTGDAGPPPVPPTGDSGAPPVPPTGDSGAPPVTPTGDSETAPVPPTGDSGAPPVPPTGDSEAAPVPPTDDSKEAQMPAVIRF", "assay": "Elution of human pancreatic cholesterol esterase bound to heparin immobilized on Sepharose", "assay_type": "binding", "details": "5 mg/ml chondroitin sulfate"}, "[2]": {"system": "human pancreatic cholesterol esterase", "assay": "Binding of 125I-cholesterol esterase to small intestine vesicles and its displacement", "method": "(§1) Vesicles contained 1.0 mg protein/ml, 30 ug total cholesterol/mg protein and 50 ug endogenous heparin/mg protein. ^125 I-cholesterol esterase (100K or 67K form) was added (0 to 400 pmol; 2,000 dpm/pmol) to 100 ug of protein of small intestine vesicles in 10 mM Tris-Cl, pH 7.2 for 15 min. at 37°. The concentration of offered ^125 I-cholesterol esterase varied between 10 nM and 1 uM. Experiments were performed utilizing 1% blotto to decrease nonspecific protein binding to the vesicles. After the 15 minute incubation at 37°, the reaction was quenched and the assay mixtures were filtered through wells of a Millipore system containing 0.2 micron pore filters presoaked in buffer. The filtrate was-collected to assess free (unbound) enzyme, and the filters were then immediately washed with 15 ml of cold buffer and counted for ^125 I. Total binding was defined as ^125 I-dpm bound to filter paper minus ^125 I-dpm detected in the same reaction without vesicles (background). Nonspecific binding (radioactivity bound to the vesicles in the presence of excess cold ligand) was quantitated as the amount of ^125 I-cholesterol esterase binding in the presence of a 1000-fold molar excess of unlabeled cholesterol esterase as described above. Specific binding is defined as the difference between total bound dpm and nonspecific-bound dpm (converted to moles bound by dividing by the SRA)."}, "[3]": {"molecular_target": "T1, human pancreatic cholesterol esterase", "assay": "Binding of 125I-cholesterol esterase to small intestine vesicles and its displacement", "method": "as §1"}, "[4]": {"molecular_target": "T2, human pancreatic cholesterol esterase (100 kDa) (Homo sapiens, UniProt P19835)", "T2 construct": "from tissue; host or cells: human pancreas (autopsy)", "T2 sequence (P19835 21-753)": "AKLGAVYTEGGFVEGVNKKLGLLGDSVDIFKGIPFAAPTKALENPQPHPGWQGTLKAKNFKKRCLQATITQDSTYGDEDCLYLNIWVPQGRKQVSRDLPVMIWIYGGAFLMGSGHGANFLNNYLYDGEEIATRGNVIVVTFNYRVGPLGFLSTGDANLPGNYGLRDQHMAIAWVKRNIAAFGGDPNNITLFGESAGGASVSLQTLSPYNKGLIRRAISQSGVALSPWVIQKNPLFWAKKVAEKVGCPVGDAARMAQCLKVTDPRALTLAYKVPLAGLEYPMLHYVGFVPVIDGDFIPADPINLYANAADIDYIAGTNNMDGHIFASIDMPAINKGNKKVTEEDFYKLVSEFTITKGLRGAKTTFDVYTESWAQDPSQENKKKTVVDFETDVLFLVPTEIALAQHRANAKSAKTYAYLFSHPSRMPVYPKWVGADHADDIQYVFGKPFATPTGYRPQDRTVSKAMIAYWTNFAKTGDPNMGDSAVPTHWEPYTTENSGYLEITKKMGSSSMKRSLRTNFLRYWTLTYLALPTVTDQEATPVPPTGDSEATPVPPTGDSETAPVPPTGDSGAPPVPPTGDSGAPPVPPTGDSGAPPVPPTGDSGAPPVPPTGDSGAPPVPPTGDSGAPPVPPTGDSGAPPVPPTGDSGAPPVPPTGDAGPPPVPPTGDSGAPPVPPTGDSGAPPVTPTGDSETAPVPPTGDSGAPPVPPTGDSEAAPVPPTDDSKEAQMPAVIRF", "assay": "Triolein hydrolysis by human pancreatic cholesterol esterase (100 kDa)", "assay_type": "biochemical", "text": "(§2) Human pancreatic cholesterol esterase (100 kDa) and human pancreatic triglyceride lipase (52 kDa) were purified to homogeneity (Examples 1 and 3), and their abilities to cleave triglycerides and cholesteryl esters were compared. […] Virtually the same results were found with cholesteryl esters; the 100 kDa enzyme cleaved cholesterol oleate at a rate at least 490-fold greater than that found for the 52 kDa triglyceride lipase."}, "[5]": {"molecular_target": "T3, human pancreatic triglyceride lipase (52 kDa) (Homo sapiens, UniProt P16233)", "T3 sequence (P16233 17-465)": "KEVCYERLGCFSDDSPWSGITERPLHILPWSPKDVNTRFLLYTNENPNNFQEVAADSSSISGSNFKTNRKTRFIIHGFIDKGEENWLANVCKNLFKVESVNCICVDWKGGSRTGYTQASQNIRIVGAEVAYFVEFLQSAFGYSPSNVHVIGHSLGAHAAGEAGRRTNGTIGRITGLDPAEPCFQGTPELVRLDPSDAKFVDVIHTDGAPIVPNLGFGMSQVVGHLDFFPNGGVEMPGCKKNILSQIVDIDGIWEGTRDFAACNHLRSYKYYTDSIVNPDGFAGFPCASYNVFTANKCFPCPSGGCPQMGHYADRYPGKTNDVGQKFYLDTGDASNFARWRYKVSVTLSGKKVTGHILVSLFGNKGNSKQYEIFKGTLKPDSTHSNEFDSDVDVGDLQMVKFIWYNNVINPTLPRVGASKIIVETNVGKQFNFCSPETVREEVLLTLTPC", "assay": "Triolein hydrolysis by human pancreatic triglyceride lipase (52 kDa)", "assay_type": "biochemical", "text": "as §2"}, "[6]": {"system": "small intestine membrane vesicles (membrane-bound heparin)", "assay": "Binding of 125I-labeled bovine pancreatic enzymes to small intestine membrane vesicles", "details": "125I-labeled bovine pancreatic enzyme, 1% Blotto", "method": "as §1, with “Exogenous heparin inhibits the interaction and binding of pancreatic choleserol esterase to small intestine vesicles prepared from proximal small intestine segments homogenized in 10 mM Tris-Cl, pH 7.2, and centrifuged at 48,000 X g for 45 minutes. Vesicles” for “Vesicles”, “After the 15 minute incubation at 37°, the reaction was quenched and the assay mixtures were filtered through wells of a Millipore system containing 0.2 micron pore filters presoaked in buffer.” left out, “Specific binding is defined as the difference between total bound dpm and nonspecific-bound dpm (converted to moles bound by dividing by the SRA).” left out"}, "[7]": {"assay": "Cholesterol ester synthesis versus hydrolysis by the 52K form", "assay_type": "biochemical, human", "method": "Human pancreatic cholesterol esterase (52K form) can be isolated as follows. Cytosol prepared as above from 30 g pancreas is dialyzed versus 10 mM Tris-Cl, 50 mM benzamidine, pH 8.2 and then chromatographed over DEAE cellulose (2.6×25 cm). Unlike the higher molecular weight forms of cholesterol esterase which bind under these conditions, the 52K species rapidly passes through DEAE cellulose at pH 8.2, with a 40-fold purification and 80% yield. Subsequent chromatography over hydroxylapatite and heparin-Sepharose yields a homogeneous protein (SDS-PAGE, M.W.=52K) with enzymatic activity expressed principally in the synthetic direction for cholesterol esters (rate of synthesis/rate of hydrolysis=10/1). This species also cross-reacts in western blotting to anti-cholesterol esterase antibodies."}, "CaCo cells": {"system": "CaCo cells", "assay": "Cellular uptake of [14C]oleate from [14C]triolein", "assay_type": "cell-based", "details": "at eight hours", "method": "Confluent monolayers of 2×10^6 CaCo cells (Example 5b) were incubated with 2 mM taurocholate and with [^14 C]triolein (5 uM) embedded in phosphatidylcholine vesicles. In the absence of triglyceride lipase, cellular uptake of [^14 C] oleate was linear and at eight hours was 204 pmol. In the presence of human triglyceride lipase (25 nM) and colipase (400 nM), uptake was brisk, reaching 706 pmol at eight hours. Moreover, enzyme-mediated uptake was also dependent on the presence of colipase in the medium, since uptake was only 229 pmol at eight hours in its absence. Heparin (400 uM) added to medium containing triglyceride lipase and colipase reduced uptake from 706 pmol to 329 pmol at eight hours. Thus, heparin decreased cellular uptake of oleate (oleic acid) from cleaved triglyceride by 75%."}}, "data": [{"molecule": "chondroitin sulfate", "values": [{"measurement": "elution of bound enzyme from heparin-Sepharose", "setting": "[1]", "value": "completely ineffective"}, {"measurement": "decrease of specific binding of 125I-cholesterol esterase to vesicles", "setting": "[2]; 0.5 to 100-fold molar excesses", "value": "less than 10%"}, {"measurement": "displacement of cholesterol esterase from vesicles", "setting": "[3]; 10 mg/ml chondroitin sulfate", "value": "ineffective"}]}, {"molecule": "[Cl-].[Na+]", "note": "[NaCl, reference compound]", "values": [{"measurement": "effect on triolein hydrolysis by the 100 kDa esterase", "setting": "[4]; 0.15 M NaCl", "value": "unaffected"}, {"measurement": "effect on specific binding of 125I-cholesterol esterase to vesicles", "setting": "[2]; isotonic saline", "value": "no effect"}, {"measurement": "displacement of cholesterol esterase from vesicles", "setting": "[3]; 150 mM NaCl", "value": "ineffective"}, {"measurement": "inhibition of triolein hydrolysis by the 52 kDa enzyme", "setting": "[5]; 0.15 M NaCl", "value": 68, "unit": "%"}]}, {"molecule": "phospholipase A2: bovine pancreatic phospholipase A2 radiolabeled with Na125I", "values": [{"measurement": "binding to small intestine membrane vesicles / membrane-bound heparin", "setting": "[6]", "value": "do not bind"}]}, {"molecule": "Human pancreatic cholesterol esterase (52K form): 52K protein isolated as in Example 3; called triglyceride lipase in Example 10 (protein, UniProt P16233 17-465, looked up) Pancreatic triacylglycerol …: KEVCYERLGCFSDDSPWSGITERPLHILPWSPKDVNTRFLLYTNENPNNFQEVAADSSSISGSNFKTNRKTRFIIHGFIDKGEENWLANVCKNLFKVESVNCICVDWKGGSRTGYTQASQNIRIVGAEVAYFVEFLQSAFGYSPSNVHVIGHSLGAHAAGEAGRRTNGTIGRITGLDPAEPCFQGTPELVRLDPSDAKFVDVIHTDGAPIVPNLGFGMSQVVGHLDFFPNGGVEMPGCKKNILSQIVDIDGIWEGTRDFAACNHLRSYKYYTDSIVNPDGFAGFPCASYNVFTANKCFPCPSGGCPQMGHYADRYPGKTNDVGQKFYLDTGDASNFARWRYKVSVTLSGKKVTGHILVSLFGNKGNSKQYEIFKGTLKPDSTHSNEFDSDVDVGDLQMVKFIWYNNVINPTLPRVGASKIIVETNVGKQFNFCSPETVREEVLLTLTPC", "values": [{"measurement": "rate of synthesis/rate of hydrolysis of cholesterol esters", "setting": "[7]", "value": "10/1"}, {"measurement": "rate of triolein hydrolysis", "setting": "[5]; homogeneous 52 kDa enzyme", "value": 27, "unit": "nmol/hr/g pancreas"}, {"measurement": "cellular uptake of [14C]oleate", "setting": "CaCo cells; human triglyceride lipase 25 nM and colipase 400 nM", "value": 706, "unit": "pmol"}, {"measurement": "cellular uptake of [14C]oleate", "setting": "CaCo cells; triglyceride lipase in the absence of colipase", "value": 229, "unit": "pmol"}]}, {"molecule": "colipase: cofactor protein added to triglyceride lipase (protein, UniProt P04118 23-112, looked up) Colipase: GIIINLENGELCMNSAQCKSNCCQHSSALGLARCTSMASENSECSVKTLYGIYYKCPCERGLTCEGDKTIVGSITNTNFGICHDAGRSKQ", "values": [{"measurement": "effect on triolein hydrolysis by the 100 kDa esterase", "setting": "[4]; 50-fold molar excess of colipase", "value": "unaffected"}, {"measurement": "stimulation of triolein hydrolysis by the 52 kDa enzyme", "setting": "[5]; 10-fold excess of colipase", "value": 375, "unit": "%"}]}]}
